Biological target: T1, ligand binding domain of human FXR (Homo sapiens, UniProt Q96RI1)
T1 construct: purchased Thermofisher (LanthaScreen) PV4833
T1 sequence (Q96RI1 262-486 limits assumed): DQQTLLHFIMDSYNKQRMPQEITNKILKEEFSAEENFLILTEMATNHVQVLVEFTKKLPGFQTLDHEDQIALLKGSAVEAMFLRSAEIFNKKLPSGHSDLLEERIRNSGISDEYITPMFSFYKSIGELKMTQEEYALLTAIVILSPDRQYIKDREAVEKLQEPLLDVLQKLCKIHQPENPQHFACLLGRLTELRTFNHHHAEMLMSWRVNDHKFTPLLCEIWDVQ
Assay: biochemical
Conditions: for Emax: extent of activation relative to GW4064, read-out: Ligand Binding % Efficacy; for EC50: −log EC50, concentration required to produce 50% activation, FRET 520 nm/495 nm, 1 hour at room temperature, read-out: Ligand Binding pEC50 (converted)
Method: The affinity of FXR ligands for the ligand binding domain of FXR was determined using a commercially available human FXR ligand binding assay (LanthaScreen, Thermofisher Cat #PV4833). […] Binding of FXR ligands to the FXR ligand binding domain promotes binding of the fluorescein-labelled SRC2-2 peptide. This causes a FRET signal between the terbium-labelled anti-GST antibody and the fluorescein-labelled SRC peptide which are both bound to the FXR ligand binding domain.
Test compounds are dissolved in DMSO and a 3-fold serial dilution series is generated, then further diluted into assay buffer. The compounds are mixed with 5 nM GST-tagged FXR ligand binding domain, 5 nM Tb-labelled anti-GST antibody and 500 nM fluorescein-labelled SRC2-2 peptide in a pH7.4 buffer. The reaction is incubated at room temperature for 1 hour, then the FRET signal is measured as the ratio of the 520 nm/495 nm emission following excitation at 340 nm. The change in FRET signal is plotted against the test article concentration and fit to a 3-parameter logistical equation.

Row | SMILES | Emax [%] | EC50 [nM]
1 | O=C(O)c1c(F)cc(N2C[C@@H]3C[C@H]2C[C@H]3OCc2c(C3CC3)cnn2-c2c(Cl)cccc2Cl)cc1F [Compound I-3, 4-[(1S,4S,5R)-5-{[4-cyclopropyl-1-(2,6-dichlorophenyl)-1H-pyrazol-5-yl]methoxy}-2-azabicyclo[2.2.1]heptan-2-yl]-2,6-difluorobenzoic acid] | 156 | 39.8
2 | O=C(O)c1ccc(N2C[C@@H]3C[C@H]2C[C@H]3OCc2c(C3CC3)cnn2-c2c(Cl)cccc2Cl)nc1 [Compound I-4, 6-[(1S,4S,5R)-5-{[4-cyclopropyl-1-(2,6-dichlorophenyl)-1H-pyrazol-5-yl]methoxy}-2-azabicyclo[2.2.1]heptan-2-yl]pyridine-3-carboxylic acid] | 132 | 100
3 | O=C(O)c1ccc(N2C[C@@H]3C[C@H]2C[C@H]3OCc2c(C3CC3)cnn2-c2c(Cl)cccc2Cl)cn1 [Compound I-5, 5-[(1S,4S,5R)-5-{[4-cyclopropyl-1-(2,6-dichlorophenyl)-1H-pyrazol-5-yl]methoxy}-2-azabicyclo[2.2.1]heptan-2-yl]pyridine-2-carboxylic acid] | 119 | 251
4 | O=C(O)c1ncc(N2C[C@@H]3C[C@H]2C[C@H]3OCc2c(C3CC3)cnn2-c2c(Cl)cccc2Cl)cn1 [Compound I-6, 5-[(1S,4S,5R)-5-{[4-cyclopropyl-1-(2,6-dichlorophenyl)-1H-pyrazol-5-yl]methoxy}-2-azabicyclo[2.2.1]heptan-2-yl]pyrimidine-2-carboxylic acid] | 101 | 
5 | Cc1cccc(C)c1-n1ncc(C2CC2)c1CO[C@@H]1C[C@@H]2C[C@H]1CN2c1ccc(C(=O)O)c(F)c1 [Compound I-7, 4-[(1S,4S,5R)-5-{[4-cyclopropyl-1-(2,6-dimethylphenyl)-1H-pyrazol-5-yl]methoxy}-2-azabicyclo[2.2.1]heptan-2-yl]-2-fluorobenzoic acid] | 134 | 25.1
6 | Cc1cccc(Cl)c1-n1ncc(C2CC2)c1CO[C@@H]1C[C@@H]2C[C@H]1CN2c1ccc(C(=O)O)c(F)c1 [Compound I-8, 4-[(1S,4S,5R)-5-{[1-(2-chloro-6-methylphenyl)-4-cyclopropyl-1H-pyrazol-5-yl]methoxy}-2-azabicyclo[2.2.1]heptan-2-yl]-2-fluorobenzoic acid] | 164 | 7.94
7 | O=C(O)c1ccc(N2C[C@@H]3C[C@H]2C[C@H]3OCc2c(C3CC3)cnn2-c2c(F)cccc2Cl)cc1F [Compound I-9, 4-[(1S,4S,5R)-5-{[1-(2-chloro-6-fluorophenyl)-4-cyclopropyl-1H-pyrazol-5-yl]methoxy}-2-azabicyclo[2.2.1]heptan-2-yl]-2-fluorobenzoic acid] | 164 | 39.8
8 | O=C(O)c1ccc(N2C(=O)[C@@H]3C[C@H]2C[C@H]3OCc2c(C3CC3)cnn2-c2c(Cl)cccc2Cl)cc1 [Compound I-11, 4-[(1S,4R,5R)-5-{[4-cyclopropyl-1-(2,6-dichlorophenyl)-1H-pyrazol-5-yl]methoxy}-3-oxo-2-azabicyclo[2.2.1]heptan-2-yl]benzoic acid] | 152 | 39.8
9 | O=C(O)c1ccc(N2C(=O)[C@@H]3C[C@H]2C[C@H]3OCc2c(C3CC3)cnn2-c2c(Cl)cccc2Cl)cc1F [Compound I-12, 4-[(1S,4R,5R)-5-{[4-cyclopropyl-1-(2,6-dichlorophenyl)-1H-pyrazol-5-yl]methoxy}-3-oxo-2-azabicyclo[2.2.1]heptan-2-yl]-2-fluorobenzoic acid] | 176 | 39.8
10 | O=C(O)c1ccc(N2C(=O)[C@@H]3C[C@H]2C[C@H]3OCc2c(C3CC3)cnn2-c2c(Cl)cccc2Cl)c(F)c1 [Compound I-13, 4-[(1S,4R,5R)-5-{[4-cyclopropyl-1-(2,6-dichlorophenyl)-1H-pyrazol-5-yl]methoxy}-3-oxo-2-azabicyclo[2.2.1]heptan-2-yl]-3-fluorobenzoic acid] | 142 | 158
11 | C[C@@H]1[C@@H]2C[C@@H](C[C@H]2OCc2c(C3CC3)cnn2-c2c(Cl)cccc2Cl)N1c1ccc(C(=O)O)cc1 [Compound I-14, 4-[(1S,3R,4S,5R)-5-{[4-cyclopropyl-1-(2,6-dichlorophenyl)-1H-pyrazol-5-yl]methoxy}-3-methyl-2-azabicyclo[2.2.1]heptan-2-yl]benzoic acid] | 48 | 398
12 | C[C@@H]1[C@@H]2C[C@@H](C[C@H]2OCc2c(C3CC3)cnn2-c2c(Cl)cccc2Cl)N1c1ccc(C(=O)O)c(F)c1 [Compound I-15, 4-[(1S,3R,4S,5R)-5-{[4-cyclopropyl-1-(2,6-dichlorophenyl)-1H-pyrazol-5-yl]methoxy}-3-methyl-2-azabicyclo[2.2.1]heptan-2-yl]-2-fluorobenzoic acid] | 44 | 1000
13 | CC[C@@H]1[C@@H]2C[C@@H](C[C@H]2OCc2c(C3CC3)cnn2-c2c(Cl)cccc2Cl)N1c1ccc(C(=O)O)cc1 [Compound I-16, 4-[(1S,3R,4S,5R)-5-{[4-cyclopropyl-1-(2,6-dichlorophenyl)-1H-pyrazol-5-yl]methoxy}-3-ethyl-2-azabicyclo[2.2.1]heptan-2-yl]benzoic acid] | 52 | 1000
14 | CC[C@H]1[C@H]2C[C@H](C[C@@H]2OCc2c(C3CC3)cnn2-c2c(Cl)cccc2Cl)N1c1ccc(C(=O)O)cc1 [Compound I-17, 4-[(1R,3S,4R,5S)-5-{[4-cyclopropyl-1-(2,6-dichlorophenyl)-1H-pyrazol-5-yl]methoxy}-3-ethyl-2-azabicyclo[2.2.1]heptan-2-yl]benzoic acid] | 15 | 
15 | CC[C@@H]1[C@@H]2C[C@@H](C[C@H]2OCc2c(C3CC3)cnn2-c2c(Cl)cccc2Cl)N1c1ccc(C(=O)O)c(F)c1 [Compound I-18, 4-[(1S,3R,4S,5R)-5-{[4-cyclopropyl-1-(2,6-dichlorophenyl)-1H-pyrazol-5-yl]methoxy}-3-ethyl-2-azabicyclo[2.2.1]heptan-2-yl]-2-fluorobenzoic acid] | 47 | 
16 | CC[C@H]1[C@H]2C[C@H](C[C@@H]2OCc2c(C3CC3)cnn2-c2c(Cl)cccc2Cl)N1c1ccc(C(=O)O)c(F)c1 [Compound I-19, 4-[(1R,3S,4R,5S)-5-{[4-cyclopropyl-1-(2,6-dichlorophenyl)-1H-pyrazol-5-yl]methoxy}-3-ethyl-2-azabicyclo[2.2.1]heptan-2-yl]-2-fluorobenzoic acid] | 30 | 
17 | CC1(C)CC(S(=O)(=O)NC(=O)c2ccc(N3C[C@@H]4C[C@H]3C[C@H]4OCc3c(C4CC4)cnn3-c3c(Cl)cccc3Cl)cc2)CCO1 (stereo partly drawn) [Compound I-21, 4-[(1S,4S,5R)-5-{[4-cyclopropyl-1-(2,6-dichlorophenyl)-1H-pyrazol-5-yl]methoxy}-2-azabicyclo[2.2.1]heptan-2-yl]-N-[(2,2-dimethyloxan-4-yl)sulfonyl]benzamide] | 174 | 1.58
18 | O=C(NS(=O)(=O)C1CC1)c1ccc(N2C[C@@H]3C[C@H]2C[C@H]3OCc2c(C3CC3)cnn2-c2c(Cl)cccc2Cl)cc1 [Compound I-22, 4-((1S,4S,5R)-5-((4-cyclopropyl-1-(2,6-dichlorophenyl)-1H-pyrazol-5-yl)methoxy)-2-azabicyclo[2.2.1]heptan-2-yl)-N-(cyclopropylsulfonyl)benzamide] | 166 | 3.98
19 | O=C(NS(=O)(=O)C1CCOCC1)c1ccc(N2C[C@@H]3C[C@H]2C[C@H]3OCc2c(C3CC3)cnn2-c2c(Cl)cccc2Cl)cn1 [Compound I-25, 5-((1S,4S,5R)-5-((4-cyclopropyl-1-(2,6-dichlorophenyl)-1H-pyrazol-5-yl)methoxy)-2-azabicyclo[2.2.1]heptan-2-yl)-N-((tetrahydro-2H-pyran-4-yl)sulfonyl)picolinamide] | 130 | 25.1
20 | O=C(NS(=O)(=O)C1CCOCC1)c1ccc(N2C(=O)[C@@H]3C[C@H]2C[C@H]3OCc2c(C3CC3)cnn2-c2c(Cl)cccc2Cl)cc1 [Compound I-26, 4-((1S,4R,5R)-5-((4-cyclopropyl-1-(2,6-dichlorophenyl)-1H-pyrazol-5-yl)methoxy)-3-oxo-2-azabicyclo[2.2.1]heptan-2-yl)-N-((tetrahydro-2H-pyran-4-yl)sulfonyl)benzamide] | 169 | 10
21 | O=C(NS(=O)(=O)C1CCOCC1)c1ccc(N2C(=O)[C@@H]3C[C@H]2C[C@H]3OCc2c(C3CC3)cnn2-c2c(Cl)cccc2Cl)cc1F [Compound I-27, 4-((1S,4R,5R)-5-((4-cyclopropyl-1-(2,6-dichlorophenyl)-1H-pyrazol-5-yl)methoxy)-3-oxo-2-azabicyclo[2.2.1]heptan-2-yl)-2-fluoro-N-((tetrahydro-2H-pyran-4-yl)sulfonyl)benzamide] | 185 | 5.01
22 | C[C@@H]1[C@@H]2C[C@@H](C[C@H]2OCc2c(C3CC3)cnn2-c2c(Cl)cccc2Cl)N1c1ccc(C(=O)NS(=O)(=O)C2CCOCC2)c(F)c1 [Compound I-28, 4-((1S,3R,4S,5R)-5-((4-cyclopropyl-1-(2,6-dichlorophenyl)-1H-pyrazol-5-yl)methoxy)-3-methyl-2-azabicyclo[2.2.1]heptan-2-yl)-2-fluoro-N-((tetrahydro-2H-pyran-4-yl)sulfonyl)benzamide] | 56 | 398

Source: patent publication US11753410B2, “Hormone receptor modulators for treating metabolic mutagenic and fibrotic conditions and disorders” (priority 2017, dated 2023)
